According to patent US11279687B2, “Compounds and compositions for the inhibition of NAMPT” (Valo Health, Inc., priority 2010, dated 2022):

Assays:
NAMPT = NAMPT (Homo sapiens (Human), UniProt P43490); assay: NAMPT biochemical inhibition assay (NMN quantified by mass spectrometry); conditions: NAMPT biochemical inhibition; read-out: Biochem IC50
A2780 cells = assay: In-vitro cell proliferation assay (SRB), A2780 cells; type: cell-based; conditions: Homo sapiens, A2780, 72 h, A2780 cells, 72 hours, SRB; read-out: A2780 IC50;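 further: viable cell number read as SRB absorbance, background from media-only wells subtracted, IC50 interpolated from percent inhibition at two bracketing compound concentrations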

NAMPT, sequence (P43490 whole entry): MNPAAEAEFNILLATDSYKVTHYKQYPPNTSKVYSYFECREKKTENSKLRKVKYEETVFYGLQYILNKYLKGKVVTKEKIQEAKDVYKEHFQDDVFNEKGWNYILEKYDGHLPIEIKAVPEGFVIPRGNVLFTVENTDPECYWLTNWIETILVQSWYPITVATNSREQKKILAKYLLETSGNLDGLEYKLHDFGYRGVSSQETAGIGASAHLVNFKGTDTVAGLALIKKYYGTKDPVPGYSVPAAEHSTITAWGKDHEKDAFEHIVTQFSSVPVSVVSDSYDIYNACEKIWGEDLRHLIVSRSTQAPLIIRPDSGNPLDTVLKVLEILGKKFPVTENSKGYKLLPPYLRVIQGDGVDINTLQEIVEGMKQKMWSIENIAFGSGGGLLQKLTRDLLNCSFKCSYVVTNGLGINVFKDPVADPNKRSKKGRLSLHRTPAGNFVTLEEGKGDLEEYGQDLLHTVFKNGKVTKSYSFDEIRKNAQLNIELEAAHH

IC50 (NAMPT) [nM]	IC50 (A2780 cells) [nM]	Compound
2	173	COc1ccc(S(=O)(=O)c2ccc(NC(=O)NCc3cccnc3)cc2)cc1F [3-{4-[(3-fluoro-4-methoxybenzene)sulfonyl]phenyl}-1-(pyridin-3-ylmethyl)urea]
1	206	Cc1ccc(S(=O)(=O)c2ccc(NC(=O)NCc3cccnc3)cc2)cc1F [3-{4-[(3-fluoro-4-methylbenzene)sulfonyl]phenyl}-1-(pyridin-3-ylmethyl)urea]
1.3	58.5	CCCOc1ccc(S(=O)(=O)c2ccc(NC(=O)NCc3cccnc3)cc2)cc1F [3-{4-[(3-fluoro-4-propoxybenzene)sulfonyl]phenyl}-1-(pyridin-3-ylmethyl)urea]
1.7	100 to 1000	COc1cc(F)cc(S(=O)(=O)c2ccc(NC(=O)NCc3cccnc3)cc2)c1 [3-{4-[(3-fluoro-5-methoxybenzene)sulfonyl]phenyl}-1-(pyridin-3-ylmethyl)urea]
1.7	99.3	Cc1cc(F)cc(S(=O)(=O)c2ccc(NC(=O)NCc3cccnc3)cc2)c1 [3-{4-[(3-fluoro-5-methylbenzene)sulfonyl]phenyl}-1-(pyridin-3-ylmethyl)urea]
1	238	O=C(NCc1cccnc1)Nc1ccc(S(=O)(=O)c2cccc(F)c2)cc1 [3-{4-[(3-fluorobenzene)sulfonyl]phenyl}-1-(pyridin-3-ylmethyl)urea]
6.6	100 to 1000	CS(=O)(=O)c1cccc(S(=O)(=O)c2ccc(NC(=O)NCc3cccnc3)cc2)c1 [3-{4-[(3-methanesulfonylbenzene)sulfonyl]phenyl}-1-(pyridin-3-ylmethyl)urea]
2.7	17.9	COc1cc(S(=O)(=O)c2ccc(NC(=O)NCc3cccnc3)cc2)ccc1C [3-{4-[(3-methoxy-4-methylbenzene)sulfonyl]phenyl}-1-(pyridin-3-ylmethyl)urea]
4	148	COc1cc(NS(=O)(=O)c2ccc(NC(=O)NCc3cccnc3)cc2)ccc1C [3-{4-[(3-methoxy-4-methylphenyl)sulfamoyl]phenyl}-1-(pyridin-3-ylmethyl)urea]
2	157	Cc1cccc(S(=O)(=O)c2ccc(NC(=O)NCc3cccnc3)cc2)c1 [3-{4-[(3-methylbenzene)sulfonyl]phenyl}-1-(pyridin-3-ylmethyl)urea]
3.8	100 to 1000	CCCOc1cccc(S(=O)(=O)c2ccc(NC(=O)NCc3cccnc3)cc2)c1 [3-{4-[(3-propoxybenzene)sulfonyl]phenyl}-1-(pyridin-3-ylmethyl)urea]
3	34	Cc1cccc(N2CCN(S(=O)(=O)c3ccc(NC(=O)NCc4cccnc4)cc3)C[C@@H]2C)c1 [3-{4-[(3S)-3-methyl-4-(3-methylphenyl)piperazine-1-sulfonyl]phenyl}-1-(pyridin-3-ylmethyl)urea]
4	95	Cc1ccc(N2CCN(S(=O)(=O)c3ccc(NC(=O)NCc4cccnc4)cc3)C[C@@H]2C)cc1 [3-{4-[(3S)-3-methyl-4-(4-methylphenyl)piperazine-1-sulfonyl]phenyl}-1-(pyridin-3-ylmethyl)urea]
2	100 to 1000	CC(=O)c1ccc(S(=O)(=O)c2ccc(NC(=O)NCc3cccnc3)cc2)cc1 [3-{4-[(4-acetylbenzene)sulfonyl]phenyl}-1-(pyridin-3-ylmethyl)urea]
14.4	1000 to 10000	CC(=O)c1ccc(NS(=O)(=O)c2ccc(NC(=O)NCc3cccnc3)cc2)cc1 [3-{4-[(4-acetylphenyl)sulfanoyl]phenyl}-1-(pyridin-3-ylmethyl)urea]
3	239	O=C(NCc1cccnc1)Nc1ccc(S(=O)(=O)c2ccc(Br)cc2)cc1 [3-{4-[(4-bromobenzene)sulfonyl]phenyl}-1-(pyridin-3-ylmethyl)urea]
2	415	O=C(NCc1cccnc1)Nc1ccc(S(=O)(=O)c2ccc(Cl)cc2F)cc1 [3-{4-[(4-chloro-2-fluorobenzene)sulfonyl]phenyl}-1-(pyridin-3-ylmethyl)urea]
6	755	Cc1cc(Cl)ccc1S(=O)(=O)c1ccc(NC(=O)NCc2cccnc2)cc1 [3-{4-[(4-chloro-2-methylbenzene)sulfonyl]phenyl}-1-(pyridin-3-ylmethyl)urea]
3	221	O=C(NCc1cccnc1)Nc1ccc(S(=O)(=O)c2ccc(Cl)c(F)c2)cc1 [3-{4-[(4-chloro-3-fluorobenzene)sulfonyl]phenyl}-1-(pyridin-3-ylmethyl)urea]
4.4	63.2	COc1cc(S(=O)(=O)c2ccc(NC(=O)NCc3cccnc3)cc2)ccc1Cl [3-{4-[(4-chloro-3-methoxybenzene)sulfonyl]phenyl}-1-(pyridin-3-ylmethyl)urea]
8	41	O=C(NCc1cccnc1)Nc1ccc([S+]([O-])c2ccc(Cl)cc2)cc1 (stereo not drawn) [3-{4-[(4-chlorobenzene)sulfmyl]phenyl}-1-(pyridin-3-ylmethyl)urea]

IC50 (NAMPT) [nM]	IC50 (A2780 cells) [nM]	Compound
5	53	O=C(NCc1cccnc1)Nc1ccc(S(=O)(=O)Nc2ccc(Cl)c3ccccc23)cc1 [3-{4-[(4-chloronaphthalen-1-yl)sulfamoyl]phenyl}-1-(pyridin-3-ylmethyl)urea]
4	157	CCOc1ccc(NS(=O)(=O)c2ccc(NC(=O)NCc3cccnc3)cc2)c(F)c1 [3-{4-[(4-ethoxy-2-fluorophenyl)sulfamoyl]phenyl}-1-(pyridin-3-ylmethyl)urea]
1.2	21.7	CCOc1ccc(S(=O)(=O)c2ccc(NC(=O)NCc3cccnc3)cc2)cc1F [3-{4-[(4-ethoxy-3-fluorobenzene)sulfonyl]phenyl}-1-(pyridin-3-ylmethyl)urea]
2.2	100 to 1000	CCOc1ccc(S(=O)(=O)c2ccc(NC(=O)NCc3cccnc3)cc2)cc1 [3-{4-[(4-ethoxybenzene)sulfonyl]phenyl}-1-(pyridin-3-ylmethyl)urea]
3	533	CCc1ccc(S(=O)(=O)c2ccc(NC(=O)NCc3cccnc3)cc2)cc1 [3-{4-[(4-ethylbenzene)sulfonyl]phenyl}-1-(pyridin-3-ylmethyl)urea]
2	28.2	COc1cc(F)ccc1S(=O)(=O)c1ccc(NC(=O)NCc2cccnc2)cc1 [3-{4-[(4-fluoro-2-methoxybenzene)sulfonyl]phenyl}-1-(pyridin-3-ylmethyl)urea]
7	116	COc1cc(F)ccc1NS(=O)(=O)c1ccc(NC(=O)NCc2cccnc2)cc1 [3-{4-[(4-fluoro-2-methoxyphenyl)sulfamoyl]phenyl}-1-(pyridin-3-ylmethyl)urea]
5	287	Cc1cc(F)ccc1S(=O)(=O)c1ccc(NC(=O)NCc2cccnc2)cc1 [3-{4-[(4-fluoro-2-methylbenzene)sulfonyl]phenyl}-1-(pyridin-3-ylmethyl)urea]
3.7	44.6	COc1cc(S(=O)(=O)c2ccc(NC(=O)NCc3cccnc3)cc2)ccc1F [3-{4-[(4-fluoro-3-methoxybenzene)sulfonyl]phenyl}-1-(pyridin-3-ylmethyl)urea]
3.7	100 to 1000	Cc1cc(S(=O)(=O)c2ccc(NC(=O)NCc3cccnc3)cc2)ccc1F [3-{4-[(4-fluoro-3-methylbenzene)sulfonyl]phenyl}-1-(pyridin-3-ylmethyl)urea]
2	91	CS(=O)(=O)c1ccc(S(=O)(=O)c2ccc(NC(=O)NCc3cccnc3)cc2)cc1 [3-{4-[(4-methanesulfonylbenzene)sulfonyl]phenyl}-1-(pyridin-3-ylmethyl)urea]
8	352	COc1ccc(S(=O)(=O)c2ccc(NC(=O)NCc3cccnc3)cc2)c(C)c1 [3-{4-[(4-methoxy-2-methylbenzene)sulfonyl]phenyl}-1-(pyridin-3-ylmethyl)urea]
2.1	8.9	COc1c(C)cc(S(=O)(=O)c2ccc(NC(=O)NCc3cccnc3)cc2)cc1C [3-{4-[(4-methoxy-3,5-dimethylbenzene)sulfonyl]phenyl}-1-(pyridin-3-ylmethyl)urea]
2.4	100 to 1000	COc1ccc(S(=O)(=O)c2ccc(NC(=O)NCc3cccnc3)cc2)cc1 [3-{4-[(4-methoxybenzene)sulfonyl]phenyl}-1-(pyridin-3-ylmethyl)urea]
4.33	141	Cc1ccc(S(=O)(=O)c2ccc(NC(=O)NCc3cccnc3)cc2)cc1 [3-{4-[(4-methylbenzene)sulfonyl]phenyl}-1-(pyridin-3-ylmethyl)urea]
1.4	97	CC(C)(C)c1ccc(NS(=O)(=O)c2ccc(NC(=O)NCc3cccnc3)cc2)c(Cl)c1 [3-{4-[(4-tert-butyl-2-chlorophenyl)sulfamoyl]phenyl}-1-(pyridin-3-ylmethyl)urea]
1.3	1.7	COc1ccc(C(C)=O)cc1S(=O)(=O)c1ccc(NC(=O)NCc2cccnc2)cc1 [3-{4-[(5-acetyl-2-methoxybenzene)sulfonyl]phenyl}-1-(pyridin-3-ylmethyl)urea]
5	21	COc1ccc(Cl)cc1S(=O)(=O)c1ccc(NC(=O)NCc2cccnc2)cc1 [3-{4-[(5-chloro-2-methoxybenzene)sulfonyl]phenyl}-1-(pyridin-3-ylmethyl)urea]
1	35	Cc1ccc(Cl)cc1NS(=O)(=O)c1ccc(NC(=O)NCc2cccnc2)cc1 [3-{4-[(5-chloro-2-methylphenyl)sulfamoyl]phenyl}-1-(pyridin-3-ylmethyl)urea]
2	4	COc1ccc(F)cc1S(=O)(=O)c1ccc(NC(=O)NCc2cccnc2)cc1 [3-{4-[(5-fluoro-2-methoxybenzene)sulfonyl]phenyl}-1-(pyridin-3-ylmethyl)urea]
1	33	COc1ccc(F)cc1NS(=O)(=O)c1ccc(NC(=O)NCc2cccnc2)cc1 [3-{4-[(5-fluoro-2-methoxyphenyl)sulfamoyl]phenyl]-1-(pyridin-3-ylmethyl)urea]
